Data published in patent US9409952B2, “Peptide-compound cyclization method” (Chugai Seiyaku Kabushiki Kaisha, priority 2011, dated 2016).
Like-named read-outs stand apart in the source and are kept apart here. Starred links: 1 amine or outer side, 2 acyl side, 3 side chain; linkers in the order of their positions; H or OH if unused. Positions of bridges follow the written chain, without caps; N, C: chain ends. Non-standard residues stand in square brackets, D forms with d. Residues, ends and D or L forms follow the SMILES beside them. *: point of attachment. Phe(4-(CH2)5CO) = O=C([C@H](Cc1ccc(CCCCCC(=O)[*:3])cc1)N[*:1])[*:2]; Phe(4-CF3) = N[C@@H](Cc1ccc(C(F)(F)F)cc1)C(=O)O; X2 = O=C(C[C@H](N[*:1])C(F)(F)F)[*:2]; NMeF = CN[C@@H](Cc1ccccc1)C(=O)O; NMeGABA = CN(CCCC(=O)[*:2])[*:1]; NMeI = CC[C@H](C)[C@H](NC)C(=O)O; NMeβAla = CN(CCC(=O)[*:2])[*:1]; Aoc(2) = CCCCCC[C@H](N)C(=O)O; NMeL = CN[C@@H](CC(C)C)C(=O)O; NMeV = CN[C@H](C(=O)O)C(C)C; NMeS = CN[C@@H](CO)C(=O)O; NMeA = CN[C@@H](C)C(=O)O; Piperidide = C1CCN(*)CC1; dNMeA = CN[C@H](C)C(=O)O; β3hA = C[C@H](N)CC(=O)O; Abu = CC[C@H](N)C(=O)O; Sar = CNCC(=O)O; tBu = CC(C)(C)*

Columns and labels:
[1] = PAMPA (parallel artificial membrane permeability assay); type: in vitro ADME; conditions: PAMPA
Outline: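 Artificial membrane was 10% (w/v) egg lecithin plus 0.5% (w/v) cholesterol in dodecane on a PVDF filter. A 10 mM DMSO stock was added at 0.5% (v/v) to donor buffer (50 mM MOPSO, pH 6.5, 5.0% glycocholic acid). After 18 h at 37 °C, LC/MS or LC/UV gave donor and acceptor levels for Pe.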

[2] = Metabolic stability in human hepatic microsome; type: in vitro ADME; conditions: microsomes
[3] = membrane permeation rate (Pe), 50 mM MOPSO buffer pH 6.5 with 5.0% glycocholic acid, 37° C., 18 hours, read-out: iPAMPA Pe
[4] = pH 7.4, human hepatic microsome, NADPH(+), read-out: CL NADPH(+)

Compound	Papp at 18 hours, 50 µM [1, 3] [×10⁻⁶ cm/s]	microsomal CLint at 1 uM [2, 4] [µL/min/mg]	Papp at 18 hours, 50 µM ([1]; pH 6.5) [×10⁻⁶ cm/s]	microsomal CLint at 1 uM ([2]; human, pH 7.4, CL NADPH(+)) [µL/min/mg]
CC(C)C[C@H]1C(=O)N(C)[C@@H](Cc2ccccc2)C(=O)N[C@@H]([C@@H](C)O)C(=O)N(C)[C@@H](C)C(=O)N(C)[C@@H](Cc2ccccc2)C(=O)N(C)[C@@H](C)C(=O)N[C@H](C(=O)N2CCCCC2)CC(=O)N(C)CCC(=O)N(C)[C@@H](C(C)C)C(=O)N[C@@H](C)C(=O)N1C [DP-337] ([NMeβAla][NMeV]A[NMeL][NMeF]T[NMeA][NMeF][NMeA]D-Piperidide; lactam N-10)	17	74		
CCCCCC[C@@H]1NC(=O)[C@H](CC(C)C)N(C)C(=O)C[C@H](C)NC(=O)[C@H](CC)NC(=O)[C@H](CO)N(C)C(=O)[C@H](CC(C)C)N(C)C(=O)[C@H](CC(C)C)N(C)C(=O)[C@H](CC(C)C)N(C)C(=O)[C@@H](C)NC(=O)[C@H](C)NC(=O)[C@H](CC(C)C)N(C)C1=O [DP-646] (cyclo(A[dA][NMeL][NMeL][NMeL][NMeS][Abu][β3hA][NMeL][Aoc(2)][NMeL]))	29	139		
CC[C@H](C)[C@H]1C(=O)NCC(=O)N(C)[C@@H](Cc2ccccc2)C(=O)N(C)[C@@H](Cc2ccccc2)C(=O)N(C)[C@@H](CC(C)C)C(=O)N(C)[C@@H](CC(C)C)C(=O)N[C@H](C(=O)N2CCCCC2)CC(=O)N(C)[C@H](C)C(=O)N[C@@H]([C@@H](C)O)C(=O)N(C)[C@@H](C)C(=O)N1C [DP-74] ([dNMeA]T[NMeA][NMeI]G[NMeF][NMeF][NMeL][NMeL]D-Piperidide; lactam N-10)			29	118
CC[C@H](C)[C@@H]1NC(=O)[C@H](C(C)C)N(C)C(=O)[C@H](CC(C)C)N(C)C(=O)[C@H](Cc2ccccc2)NC(=O)[C@@H](C)N(C)C(=O)C[C@@H](C(=O)N(C)[C@@H](Cc2ccccc2)C(=O)N(C)[C@@H](Cc2ccccc2)C(=O)N[C@@H](C)C(=O)N2CCCCC2)NC(=O)[C@H](C)N(C)C(=O)[C@H]([C@@H](C)O)NC(=O)[C@H](CC(C)C)N(C)C(=O)CN(C)C1=O [DP-454] ([dNMeA]F[NMeL][NMeV]I[Sar][NMeL]T[NMeA]D[NMeF][NMeF]A-Piperidide; lactam N-10)	14	50		
CC[C@H](C)[C@@H]1NC(=O)[C@H](CC(C)C)N(C)C(=O)CCCN(C)C(=O)C[C@@H](C(=O)N2CCCCC2)NC(=O)[C@H](CC(C)C)N(C)C(=O)[C@H](C)N(C)C(=O)[C@H]([C@@H](C)O)NC(=O)[C@H](CC(C)C)N(C)C(=O)[C@H](COC(C)(C)C)NC(=O)[C@H](Cc2ccccc2)N(C)C(=O)[C@H](Cc2ccccc2)N(C)C1=O [DP-114] ([NMeGABA][NMeL]I[NMeF][NMeF]S(tBu)[NMeL]T[NMeA][NMeL]D-Piperidide; lactam N-11)			44	56
CC[C@H](C)[C@@H]1NC(=O)[C@H](CC(C)C)N(C)C(=O)[C@H](Cc2ccccc2)NC(=O)CCN(C)C(=O)C[C@@H](C(=O)N2CCCCC2)NC(=O)[C@H](CC(C)C)NC(=O)[C@H](Cc2ccccc2)NC(=O)[C@H](Cc2ccccc2)N(C)C(=O)[C@H](CC(C)C)NC(=O)[C@H]([C@@H](C)O)NC1=O [DP-334] ([NMeβAla]F[NMeL]ITL[NMeF]FLD-Piperidide; lactam N-10)	20	80		
CC(C)C[C@@H]1NC(=O)[C@H](CC(C)C)N(C)C(=O)[C@H](Cc2ccccc2)N(C)C(=O)[C@@H](C)N(C)C(=O)C[C@@H](C(=O)N2CCCCC2)NC(=O)[C@H](Cc2ccccc2)N(C)C(=O)[C@H](C)N(C)C(=O)[C@H](C)NC(=O)CN(C)C(=O)[C@H](C)N(C)C(=O)[C@H]([C@@H](C)O)NC(=O)[C@H](C(C)C)N(C)C1=O [DP-466] ([dNMeA][NMeF][NMeL]L[NMeV]T[NMeA][Sar]A[NMeA][NMeF]D-Piperidide; lactam N-12)	15	17		
CC[C@H](C)[C@H]1C(=O)N[C@@H]([C@@H](C)O)C(=O)N(C)[C@@H](C)C(=O)N(C)[C@@H](CC(C)C)C(=O)N[C@H](C(=O)N2CCCCC2)CC(=O)N(C)CC(=O)N(C)[C@@H](CC(C)C)C(=O)N[C@@H](CC(C)C)C(=O)N(C)[C@@H](Cc2ccccc2)C(=O)N[C@@H](COC(C)(C)C)C(=O)N(C)[C@@H](Cc2ccccc2)C(=O)N1C [DP-69] ([Sar][NMeL]L[NMeF]S(tBu)[NMeF][NMeI]T[NMeA][NMeL]D-Piperidide; lactam N-11)			21	68
CC[C@H](C)[C@H]1C(=O)N(C)[C@@H](CC(C)C)C(=O)N[C@H](C(=O)N2CCCCC2)CC(=O)N(C)CC(=O)N[C@@H]([C@@H](C)O)C(=O)N(C)[C@@H](C)C(=O)N(C)[C@@H](C(C)C)C(=O)N[C@@H](Cc2ccccc2)C(=O)N(C)CC(=O)N[C@@H](C)C(=O)N1C [DP-75] ([Sar]T[NMeA][NMeV]F[Sar]A[NMeI][NMeL]D-Piperidide; lactam N-10)			3.3	27
CC(C)C[C@H]1C(=O)N[C@H](C(=O)N2CCCCC2)CC(=O)N(C)[C@@H](C)C(=O)N(C)[C@@H](Cc2ccccc2)C(=O)N(C)[C@@H](C)C(=O)N[C@@H]([C@@H](C)O)C(=O)N(C)[C@@H](C)C(=O)N[C@@H](Cc2ccccc2)C(=O)N(C)[C@@H](C)C(=O)N[C@@H](C)C(=O)N(C)[C@@H](C)C(=O)N1C [DP-422] ([NMeA][NMeF][NMeA]T[NMeA]F[NMeA]A[NMeA][NMeL]D-Piperidide; lactam N-11)	3.8	26		
CC[C@H](C)[C@H]1C(=O)N(C)[C@@H](C)C(=O)N[C@H](C(=O)N2CCCCC2)Cc2ccc(cc2)CCCCCC(=O)N[C@@H]([C@@H](C)O)C(=O)N(C)[C@@H](Cc2ccccc2)C(=O)N(C)[C@@H](CC(C)C)C(=O)N[C@@H](C(C)C)C(=O)N2CCC[C@H]2C(=O)N(C)[C@@H](Cc2ccccc2)C(=O)N[C@@H](CC(C)C)C(=O)N(C)CC(=O)N1C [DP-883] (T[NMeF][NMeL]VP[NMeF]L[Sar][NMeI][NMeA][Phe(4-(CH2)5CO)]-Piperidide; lactam N-11)	14	294		
CC(C)C[C@@H]1NC(=O)[C@H](C)NC(=O)C[C@H](C)NC(=O)[C@H](C(C)C)N(C)C(=O)[C@H](CC(C)C)N(C)C(=O)[C@H]([C@@H](C)O)NC(=O)[C@H](Cc2ccc(C(F)(F)F)cc2)NC(=O)[C@H](C)N(C)C(=O)CNC(=O)[C@H](CC(C)C)N(C)C(=O)[C@H](C)N(C)C1=O [DP-829] (cyclo(AL[NMeA][NMeL]G[NMeA][Phe(4-CF3)]T[NMeL][NMeV][β3hA]))	21	65		
CC(C)C[C@@H]1NC(=O)[C@H](CO)N(C)C(=O)C[C@@H](C(F)(F)F)NC(=O)[C@H](CC(C)C)N(C)C(=O)[C@H](CC(C)C)N(C)C(=O)[C@@H](C)NC(=O)[C@H](C)NC(=O)[C@H](CC(C)C)N(C)C(=O)[C@H](CC(C)C)NC(=O)[C@H](CC(C)C)N(C)C(=O)CN(C)C1=O [DP-657] (cyclo(A[dA][NMeL][NMeL][X2][NMeS]L[Sar][NMeL]L[NMeL]))	24	157		
CC(C)C[C@@H]1NC(=O)[C@H](Cc2ccccc2)N(C)C(=O)[C@H]([C@@H](C)O)NC(=O)[C@H](Cc2ccccc2)N(C)C(=O)[C@H](C)N(C)C(=O)[C@H](C)NC(=O)C[C@@H](C(=O)N2CCCCC2)NC1=O [DP-539] (A[NMeA][NMeF]T[NMeF]LD-Piperidide; lactam N-7)	20	260		
